Reference: patent publication US20240000879A1, “HERBAL COMPOSITIONS WITH IMPROVED BIOAVAILABILITY” (priority 2017, published 2024)

Assay: Herbal composition/SNAC oral rat pharmacokinetic (PK) study (Example 5)
Type: in vivo
Conditions: rats; for increase in AUC0-Tlast / increase in Cmax: oral, 50 mg/kg cannabis extract + 500 mg/kg SNAC; for time to reach the mean maximum plasma concentration (Tmax): single oral gavage
Method: Example 5. Summary of an herbal composition/SNAC oral rat pharmacokinetic (PK) study.
Methods. Animals were dosed on Day 1 and a series of blood samples were collected over a period of 4 hours post dose for pharmacokinetic evaluation. Animals were euthanized following collection of their last blood sample.

| Compound | increase in AUC0-Tlast | increase in Cmax | time to reach the mean maximum plasma concentration (Tmax) (high dose group (50 mg extract/kg + 500 mg SNAC/kg)) | time to reach the mean maximum plasma concentration (Tmax) (low and mid dose groups (25 mg extract/kg + 250 or 500 mg SNAC/kg)) |
| --- | --- | --- | --- | --- |
| CCCCCc1cc(O)c2c(c1)OC(C)(C)[C@@H]1CCC(C)=C[C@@H]21 [THC] | 6.3 fold | 6.9 fold | 2 hours post dose | 1 hour post dose |
| C=C(C)[C@@H]1CCC(C)=C[C@H]1c1c(O)cc(CCCCC)cc1O [CBD] | 22.1 fold | 14.2 fold |  |  |
